Reference: patent US10246426B2, “Triazole compounds as T-type calcium channel blockers” (IDORSIA PHARMACEUTICALS LTD, priority 2014, dated 2019)
pIC50: −log10 of the molar value.

Target: Cav3.2 (Homo sapiens, UniProt O95180)
Experiment: Calcium flux FLIPR assay, HEK293 cells recombinantly expressing Cav3.2
Format: cell-based
Details: Cav3.2-channel, Ca2+ entry stimulated by 10 mM CaCl2
How it was run: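 Fluo-4-loaded HEK293 cells stably expressing Cav3.2, seeded overnight at 37 °C; compounds diluted in TEAC buffer (pH 7.2) and preincubated 3 min before Ca2+ entry triggered with CaCl2 at 10 mM final. Area under FLIPR fluorescence trace fitted sigmoidally; IC50 relative to vehicle signal.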

Chain of Cav3.2 (O95180 whole entry, looked up): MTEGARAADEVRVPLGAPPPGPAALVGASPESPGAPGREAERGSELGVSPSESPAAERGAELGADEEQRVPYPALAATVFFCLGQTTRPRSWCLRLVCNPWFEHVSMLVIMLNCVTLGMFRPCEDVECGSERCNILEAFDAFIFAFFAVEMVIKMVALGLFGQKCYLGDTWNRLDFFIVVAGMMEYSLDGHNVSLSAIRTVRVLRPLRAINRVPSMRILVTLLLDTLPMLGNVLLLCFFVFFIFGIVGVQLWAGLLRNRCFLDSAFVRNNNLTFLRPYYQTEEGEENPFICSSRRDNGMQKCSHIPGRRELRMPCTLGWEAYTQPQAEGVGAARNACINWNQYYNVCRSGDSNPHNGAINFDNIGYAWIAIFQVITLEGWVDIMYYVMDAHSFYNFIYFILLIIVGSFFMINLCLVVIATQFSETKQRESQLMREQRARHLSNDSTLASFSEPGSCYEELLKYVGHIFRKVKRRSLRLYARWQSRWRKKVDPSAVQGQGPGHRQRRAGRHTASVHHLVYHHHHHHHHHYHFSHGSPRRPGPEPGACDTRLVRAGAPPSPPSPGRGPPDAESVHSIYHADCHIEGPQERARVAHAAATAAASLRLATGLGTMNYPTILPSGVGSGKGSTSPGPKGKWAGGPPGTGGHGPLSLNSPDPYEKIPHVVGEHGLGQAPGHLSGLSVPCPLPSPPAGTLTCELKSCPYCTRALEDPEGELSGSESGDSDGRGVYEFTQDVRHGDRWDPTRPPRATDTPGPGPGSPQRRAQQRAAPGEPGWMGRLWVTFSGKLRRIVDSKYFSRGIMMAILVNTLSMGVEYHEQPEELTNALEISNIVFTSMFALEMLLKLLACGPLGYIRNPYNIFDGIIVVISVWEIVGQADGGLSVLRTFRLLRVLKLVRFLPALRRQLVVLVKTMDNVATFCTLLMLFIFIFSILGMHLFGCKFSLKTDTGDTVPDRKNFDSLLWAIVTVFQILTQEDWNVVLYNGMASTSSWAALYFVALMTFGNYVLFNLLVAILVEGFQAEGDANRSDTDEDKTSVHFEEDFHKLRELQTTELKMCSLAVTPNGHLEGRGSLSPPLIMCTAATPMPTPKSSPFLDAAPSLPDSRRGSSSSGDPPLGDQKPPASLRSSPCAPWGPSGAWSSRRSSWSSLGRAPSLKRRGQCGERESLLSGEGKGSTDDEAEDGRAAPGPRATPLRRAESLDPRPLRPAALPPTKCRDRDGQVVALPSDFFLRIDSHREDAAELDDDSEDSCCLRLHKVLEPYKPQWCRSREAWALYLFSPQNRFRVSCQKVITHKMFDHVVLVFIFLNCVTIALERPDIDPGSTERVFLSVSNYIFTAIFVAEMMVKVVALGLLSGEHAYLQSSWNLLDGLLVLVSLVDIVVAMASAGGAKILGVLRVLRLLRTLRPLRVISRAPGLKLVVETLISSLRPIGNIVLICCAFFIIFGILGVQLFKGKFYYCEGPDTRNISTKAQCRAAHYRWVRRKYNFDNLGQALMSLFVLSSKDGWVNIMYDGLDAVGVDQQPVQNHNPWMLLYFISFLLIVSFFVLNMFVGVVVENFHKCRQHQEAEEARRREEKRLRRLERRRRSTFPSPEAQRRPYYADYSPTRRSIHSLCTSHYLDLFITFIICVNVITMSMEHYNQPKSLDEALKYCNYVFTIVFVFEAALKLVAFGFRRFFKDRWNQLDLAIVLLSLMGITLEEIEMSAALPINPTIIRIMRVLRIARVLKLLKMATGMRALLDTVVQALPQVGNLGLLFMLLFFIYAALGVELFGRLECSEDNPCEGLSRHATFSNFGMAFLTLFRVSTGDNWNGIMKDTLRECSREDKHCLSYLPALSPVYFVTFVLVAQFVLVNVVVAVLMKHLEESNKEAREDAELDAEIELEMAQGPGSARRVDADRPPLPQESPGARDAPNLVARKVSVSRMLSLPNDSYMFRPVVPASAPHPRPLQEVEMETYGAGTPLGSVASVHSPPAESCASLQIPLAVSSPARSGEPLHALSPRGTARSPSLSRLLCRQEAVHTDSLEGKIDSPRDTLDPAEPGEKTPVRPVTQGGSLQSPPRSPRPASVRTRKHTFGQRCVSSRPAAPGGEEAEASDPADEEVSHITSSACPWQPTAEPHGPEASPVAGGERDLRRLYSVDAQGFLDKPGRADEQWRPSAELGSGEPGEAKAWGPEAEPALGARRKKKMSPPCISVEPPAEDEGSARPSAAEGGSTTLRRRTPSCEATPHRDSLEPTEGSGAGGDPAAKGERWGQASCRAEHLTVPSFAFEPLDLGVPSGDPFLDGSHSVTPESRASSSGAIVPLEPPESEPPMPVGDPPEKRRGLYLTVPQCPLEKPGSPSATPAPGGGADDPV

| SMILES | pIC50 |
| --- | --- |
| Cc1cn(C)c2ccc(CC(=O)Nc3cnn(Cc4ccc(C#N)c(F)c4)n3)cc12 [Example 140, N-[2-(4-Cyano-3-fluoro-benzyl)-2H-[1,2,3]triazol-4-yl]-2-(1,3-dimethyl-1H-indol-5-yl)-acetamide] | 7.85 |
| COc1c(F)cc(Cn2ncc(NC(=O)Cc3ccc4cnn(C)c4c3)n2)cc1F [Example 142, N-[2-(3,5-Difluoro-4-methoxy-benzyl)-2H-[1,2,3]triazol-4-yl]-2-(1-methyl-1H-indazol-6-yl)-acetamide] | 7.06 |
| COc1c(F)cc(Cn2ncc(NC(=O)Cc3ccc(C4(OC)COC4)cc3)n2)cc1F [Example 143, N-[2-(3,5-Difluoro-4-methoxy-benzyl)-2H-[1,2,3]triazol-4-yl]-2-[4-(3-methoxy-oxetan-3-yl)-phenyl]-acetamide] | 7.12 |
| COc1c(F)cc(Cn2ncc(NC(=O)Cc3ccc(OC4CC(F)(F)C4)cc3)n2)cc1F [Example 146, 2-[4-(3,3-Difluoro-cyclobutoxy)-phenyl]-N-[2-(3,5-difluoro4-methoxy-benzyl)-2H-[1,2,3]triazol-4-yl]-acetamide] | 6.09 |
| COc1c(F)cc(Cn2ncc(NC(=O)Cc3ccc4c(c3)c(C)cn4C)n2)cc1F [Example 150, N-[2-(3,5-Difluoro-4-methoxy-benzyl)-2H-[1,2,3]triazol-4-yl]-2-(1,3-dimethyl-1H-indol-5-yl)-acetamide] | 7.80 |
| COc1cc(Cn2ncc(NC(=O)Cc3ccc(C(C)C)cc3)n2)ccc1F [Example 153, N-[2-(4-Fluoro-3-methoxy-benzyl)-2H-[1,2,3]triazol-4-yl]-2-(4-isopropyl-phenyl)-acetamide] | 7.15 |
| COc1cc(Cn2ncc(NC(=O)Cc3ccc(N4CCCC4)nc3)n2)ccc1F [Example 155, N-[2-(4-Fluoro-3-methoxy-benzyl)-2H-[1,2,3]triazol-4-yl]-2-(6-pyrrolidin-1-yl-pyridin-3-yl)-acetamide] | 6.85 |
| Cc1cc(Cn2ncc(NC(=O)Cc3ccc(C(C)(C)C)cc3)n2)ccc1C#N [Example 162, 2-(4-tert-Butyl-phenyl)-N-[2-(4-cyano-3-methyl-benzyl)-2H-[1,2,3]triazol-4-yl]-acetamide] | 7.44 |
| Cc1cc(Cn2ncc(NC(=O)Cc3ccc4c(cnn4C)c3)n2)ccc1C#N [Example 164, N-[2-(4-Cyano-3-methyl-benzyl)-2H-[1,2,3]triazol-4-yl]-2-(1-methyl-1H-indazol-5-yl)-acetamide] | 6.96 |
| Cc1cc(Cn2ncc(NC(=O)Cc3ccc(C(C)C)cc3)n2)ccc1C#N [Example 165, N-[2-(4-Cyano-3-methyl-benzyl)-2H-[1,2,3]triazol-4-yl]-2-(4-isopropyl-phenyl)-acetamide] | 7.74 |
| Cc1cc(Cn2ncc(NC(=O)Cc3ccc(OC4CC(F)(F)C4)cc3)n2)ccc1C#N [Example 166, N-[2-(4-Cyano-3-methyl-benzyl)-2H-[1,2,3]triazol-4-yl]-2-[4-(3,3-difluoro-cyclobutoxy)-phenyl]-acetamide] | 7.48 |
| CCn1ncc2cc(CC(=O)Nc3cnn(Cc4ccc(C#N)c(C)c4)n3)ccc21 [Example 168, N-[2-(4-Cyano-3-methyl-benzyl)-2H-[1,2,3]triazol-4-yl]-2-(1-ethyl-1H-indazol-5-yl)-acetamide] | 7.40 |
| Cc1cc(Cn2ncc(NC(=O)Cc3ccc4c(c3)c(C)nn4C)n2)ccc1C#N [Example 169, N-[2-(4-Cyano-3-methyl-benzyl)-2H-[1,2,3]triazol-4-yl]-2-(1,3-dimethyl-1H-indazol-5-yl)-acetamide] | 7.02 |
| Cc1cc(Cn2ncc(NC(=O)Cc3ccc(N4CCCC4)nc3)n2)ccc1C#N [Example 170, N-[2-(4-Cyano-3-methyl-benzyl)-2H-[1,2,3]triazol-4-yl]-2-(6-pyrrolidin-1-yl-pyridin-3-yl)-acetamide] | 7.30 |
| Cc1cc(Cn2ncc(NC(=O)Cc3ccc4c(c3)c(C)cn4C)n2)ccc1C#N [Example 171, N-[2-(4-Cyano-3-methyl-benzyl)-2H-[1,2,3]triazol-4-yl]-2-(1,3-dimethyl-1H-indol-5-yl)-acetamide] | 7.66 |
| N#Cc1ccc(Cn2ncc(NC(=O)Cc3ccc(OCC4(F)COC4)cc3)n2)cc1F [Example 175, N-[2-(4-Cyano-3-fluoro-benzyl)-2H-[1,2,3]triazol-4-yl]-2-[4-(3-fluoro-oxetan-3-ylmethoxy)-phenyl]-acetamide] | 7.00 |

More lines, in order of rising pIC50, values ahead:

| pIC50 | SMILES |
| --- | --- |
| 6.48 | Cc1cc(Cn2ncc(NC(=O)Cc3ccc4cnn(C)c4c3)n2)ccc1C#N [Example 163, N-[2-(4-Cyano-3-methyl-benzyl)-2H-[1,2,3]triazol-4-yl]-2-(1-methyl-1H-indazol-6-yl)-acetamide] |
| 6.62 | COc1cc(Cn2ncc(NC(=O)Cc3ccc(C(C)(C)C)cc3)n2)cc(F)c1C#N [Example 158, 2-(4-tert-Butyl-phenyl)-N-[2-(4-cyano-3-fluoro-5-methoxy-benzyl)-2H-[1,2,3]triazol-4-yl]-acetamide] |
| 6.82 | Cn1ncc2cc(CC(=O)Nc3cnn(Cc4ccc(F)c(C#N)c4)n3)ccc21 [Example 173, N-[2-(3-Cyano-4-fluoro-benzyl)-2H-[1,2,3]triazol-4-yl]-2-(1-methyl-1H-indazol-5-yl)-acetamide] |
| 6.92 | COc1c(F)cc(Cn2ncc(NC(=O)Cc3ccc(C4(C(F)(F)F)CC4)cc3)n2)cc1F [Example 145, N-[2-(3,5-Difluoro-4-methoxy-benzyl)-2H-[1,2,3]triazol-4-yl]-2-[4-(1-trifluoromethyl-cyclopropyl)-phenyl]-acetamide] |
| 7.04 | COc1ccc(Cn2ncc(NC(=O)Cc3ccc4c(cnn4C)c3)n2)cc1F [Example 152, N-[2-(3-Fluoro-4-methoxy-benzyl)-2H-[1,2,3]triazol-4-yl]-2-(1-methyl-1H-indazol-5-yl)-acetamide] |
| 7.07 | COc1c(F)cc(Cn2ncc(NC(=O)Cc3ccc(OCC4COC4)cc3)n2)cc1F [Example 141, N-[2-(3,5-Difluoro-4-methoxy-benzyl)-2H-[1,2,3]triazol-4-yl]-2-[4-(oxetan-3-ylmethoxy)-phenyl]-acetamide] |
| 7.14 | COc1cc(Cn2ncc(NC(=O)Cc3ccc4c(cnn4C)c3)n2)ccc1F [Example 151, N-[2-(4-Fluoro-3-methoxy-benzyl)-2H-[1,2,3]triazol-4-yl]-2-(1-methyl-1H-indazol-5-yl)-acetamide] |
| 7.15 | COc1ccc(Cn2ncc(NC(=O)Cc3ccc(N4CCCC4)nc3)n2)cc1F [Example 156, N-[2-(3-Fluoro-4-methoxy-benzyl)-2H-[1,2,3]triazol-4-yl]-2-(6-pyrrolidin-1-yl-pyridin-3-yl)-acetamide] |
| 7.16 | CCn1ncc2cc(CC(=O)Nc3cnn(Cc4ccc(C#N)c(F)c4)n3)ccc21 [Example 139, N-[2-(4-Cyano-3-fluoro-benzyl)-2H-[1,2,3]triazol-4-yl]-2-(1-ethyl-1H-indazol-5-yl)-acetamide] |
| 7.21 | N#Cc1ccc(Cn2ncc(NC(=O)Cc3ccc(C(F)(F)F)cc3)n2)cc1F [Example 159, N-[2-(4-Cyano-3-fluoro-benzyl)-2H-[1,2,3]triazol-4-yl]-2-(4-trifluoromethyl-phenyl)-acetamide] |
| 7.25 | COc1c(F)cc(Cn2ncc(NC(=O)Cc3ccc(OCC4(C)COC4)cc3)n2)cc1F [Example 144, N-[2-(3,5-Difluoro-4-methoxy-benzyl)-2H-[1,2,3]triazol-4-yl]-2-[4-(3-methyl-oxetan-3-ylmethoxy)-phenyl]-acetamide] |
| 7.36 | COc1ccc(Cn2ncc(NC(=O)Cc3ccc(C(C)C)cc3)n2)cc1F [Example 154, N-[2-(3-Fluoro-4-methoxy-benzyl)-2H-[1,2,3]triazol-4-yl]-2-(4-isopropyl-phenyl)-acetamide] |
| 7.46 | COc1c(F)cc(Cn2ncc(NC(=O)Cc3ccc(C4(F)COC4)cc3)n2)cc1F [Example 148, N-[2-(3,5-Difluoro-4-methoxy-benzyl)-2H-[1,2,3]triazol-4-yl]-2-[4-(3-fluoro-oxetan-3-yl)-phenyl]-acetamide] |
| 7.48 | Cc1nn(C)c2ccc(CC(=O)Nc3cnn(Cc4ccc(C#N)c(F)c4)n3)cc12 [Example 177, N-[2-(4-Cyano-3-fluoro-benzyl)-2H-[1,2,3]triazol-4-yl]-2-(1,3-dimethyl-1H-indazol-5-yl)-acetamide] |
| 7.51 | CC(C)(C#N)c1ccc(CC(=O)Nc2cnn(Cc3ccc(C#N)c(F)c3)n2)cc1 [Example 157, 2-[4-(Cyano-dimethyl-methyl)-phenyl]-N-[2-(4-cyano-3-fluoro-benzyl)-2H-[1,2,3]triazol-4-yl]-acetamide] |
| 7.54 | CCn1ncc2cc(CC(=O)Nc3cnn(Cc4cc(F)c(OC)c(F)c4)n3)ccc21 [Example 149, N-[2-(3,5-Difluoro-4-methoxy-benzyl)-2H-[1,2,3]triazol-4-yl]-2-(1-ethyl-1H-indazol-5-yl)-acetamide] |
| 7.55 | CC(C)c1ccc(CC(=O)Nc2cnn(Cc3ccc(F)c(C#N)c3)n2)cc1 [Example 174, N-[2-(3-Cyano-4-fluoro-benzyl)-2H-[1,2,3]triazol-4-yl]-2-(4-isopropyl-phenyl)-acetamide] |
| 7.60 | N#Cc1ccc(Cn2ncc(NC(=O)Cc3cnc(N4CCCC4)c(F)c3)n2)cc1F [Example 161, N-[2-(4-Cyano-3-fluoro-benzyl)-2H-[1,2,3]triazol-4-yl]-2-(5-fluoro-6-pyrrolidin-1-yl-pyridin-3-yl)-acetamide] |
| 7.66 | Cc1cc(Cn2ncc(NC(=O)Cc3ccc(N4CCC(F)(F)C4)nc3)n2)ccc1C#N [Example 167, N-[2-(4-Cyano-3-methyl-benzyl)-2H-[1,2,3]triazol-4-yl]-2-[6-(3,3-difluoro-pyrrolidin-1-yl)-pyridin-3-yl]-acetamide] |
| 7.89 | COc1c(F)cc(Cn2ncc(NC(=O)Cc3ccc(N4CCC(F)(F)C4)nc3)n2)cc1F [Example 147, N-[2-(3,5-Difluoro-4-methoxy-benzyl)-2H-[1,2,3]triazol-4-yl]-2-[6-(3,3-difluoro-pyrrolidin-1-yl)-pyridin-3-yl]-acetamide] |
